For assay [1], the system named is apple trees. In words: Field trial in apple trees under heat, light and water stress (sunburn, fruit size, yield). It counts as in vivo. To be noted: apples. The method, then:
Field trials were conducted in commercial fields and orchards in Chile during the 2011-12 and 2012-13 growing seasons. The results were evaluated by measuring specific fruit parameters affected by abiotic stress including fruit diameter, fruit number, and amount of damage from heat or sunburn. The plants evaluated were apples and tomatoes. The plants in the trials received a conventional application of pesticides, under normal application conditions. The heat and light stress were considered important from the beginning of fruit development. High temperatures ranged between 30-35° C. ambient temperature measured by conventional methods in the shade from December to harvest.
Foliage and fruit were evaluated before and after treatments at regular intervals for signs of phytotoxicity. […] Furthermore, no signs of uncontrolled disease incidence was detected.
SUNCROPS, SUNCROPS PLUS, SCREEN DUO, and ECLIPSE are commercial treatments which are used in the management of abiotic stress. Kaolins and calcium carbonates reduce stress by reflecting the ultraviolet, visible and infrared rays, reducing the impact of excessive heat and light in photosynthesis and other essential plant cellular processes. The dicarboxylic acids, such as the azalaic acid in SUNCROPS PLUS, physiologically act by interacting on lipo-oxygenation processes and production of reactive oxygen species. (Greenberg et al. “The lipid whisker model of the structure of oxidized cell membranes.” J. Biol. Chem. 283, 2385-96, 2008)
The apple trees received six applications of each formulation at the dosages indicated in the “Dosage” column of Table 1. Tomato plants received biweekly treatments from fruit formation to fruit harvest (a total of 6 applications).
The different stages of fruit development correspond to (1) cell division (2) pit hardening (stone fruits only) (3) cell expansion and (4) fruit ripening. The start of the tests was done during the cell division phase. This phase corresponds to the period with increased susceptibility to damage from high temperatures, and can be correlated with increase in fruits having reduced size and decrease in the number of fruits per plant as a consequence of the abiotic stress due to high temperatures.
Early season heat, light and/or water stress can prevent cell division that occurs during phase (1) of the development of apple fruits.
Testing with apples was conducted in Rancagua, Sixth Region; Chile. The tree fruit load was standardized at a value of about 220 fruits per tree; ±3%, thus eliminating the variability generated by different loads of fruit on the trees. To assess damage from sunburn related to heat and water stress, 100% of the apples were harvested from the tree in each test unit and were classified according to the following scheme shown in Table 2.
Table 2. Classification scheme based on visual evaluation of the fruit • 0 No visible presence of sunburn • 1 Presence of slight yellowing of the skin (<7% of the surface of the fruit); exportable commercial fruit. • 2 Presence of strong yellowing of the skin (>7% of the surface of the fruit); exportable commercial fruit. • 3 Presence of moderate sunburn skin, no commercial fruit, suitable only for juice or related industry. • 4 Presence of significant sunburn skin, no harvestable fruit unmarketable.
The variables measured were: fruit diameter (mm), percentage of sunburn (number of fruits belonging to grades 1 or 2), size of the fruit (measured as weight in grams). The total fruit yield of the tree and the commercial yield (amount of commercial grade fruits, grades 1 or 2) was also measured.

The test system of assay [2] is tomato plants. Briefly: Field trial in tomato plants under heat, light and water stress (sunburn, yield, soluble solids). Type of assay: in vivo. Conditions: 6 applications.
Protocol: The study was conducted on tomatoes in a commercial growing field in Botalcura, Talca, Chile. […]
For each two meters plot, plants were harvested during six test runs. The fruit were first evaluated visually: fruits with red color as adequate for industrial processing, fruits with green color as inadequate and inappropriate for industrial processing and fruits damaged by the sun as disposable. […]

Take `O=CCCCCCCCC(=O)O` [ONA, 9-Oxononanoic acid]: the Fruit diameter in assay [1] (Rancagua, Chile, six applications at Table 1 dosage, about 220 fruits per tree) is reported as 40.63 mm. For the same compound, the “Effectiveness in protection of fruit compared with commercial treatments” value in assay [1] (cell division stage) is given as “more effective than commercial treatments”. For the same compound, in assay [1] (commercial grade fruits (grades 1 or 2), six applications), the Yield commercial is 49.7 kg/tree. The compound also came in with a Size in assay [1] (fruit weight, six applications) of 146 g/apple. In addition, in assay [1] (six applications), the Yield total is reported as 53.9 kg/tree. For the same compound, in assay [1] (visual sunburn grading scheme of Table 2, six applications), the “Percent fruit of grades 1 or 2” value was found to be 88.25%. Also, in assay [2], the Soluble solids was 6.4 °Brix.

Source of the values: US20160037772A1, “INCREASING ABIOTIC STRESS TOLERANCE IN PLANTS” (priority 2014, published 2016).
